Measured values taken from article PMC2880318 (Immunome Research, 2010).
Where a SMILES comes first, the peptide text is derived from it.

These compounds were tested against purified HLA-DRB1*0101 (Homo sapiens, UniProt P01903+P01911, A100R/D57E/F55L/F60I/F76Y/I96L/L162R/M171V/P40L/Q125E/R42F/V115G/Y59C) (assay: biochemical).
Format: binding
Compound `CC[C@H](C)[C@H](NC(=O)[C@H](CC(=O)O)NC(=O)[C@H](CC(N)=O)NC(=O)[C@H](Cc1ccccc1)NC(=O)[C@@H](NC(=O)[C@H](CCCCN)NC(=O)[C@H](CCCNC(=N)N)NC(=O)[C@H](C)NC(=O)[C@H](CS)NC(=O)[C@H](CC(N)=O)NC(=O)[C@H](CCCNC(=N)N)NC(=O)[C@@H](NC(=O)[C@H](Cc1ccccc1)NC(=O)[C@H](CO)NC(=O)[C@@H](N)[C@@H](C)O)[C@@H](C)CC)C(C)C)C(=O)O` [MACV L1491-1505] has an IC50 of 0.11 nM.
With `CC(C)[C@H](NC(=O)[C@H](C)NC(=O)[C@H](Cc1c[nH]c2ccccc12)NC(=O)[C@H](Cc1ccccc1)NC(=O)[C@H](Cc1ccccc1)NC(=O)[C@H](CC(N)=O)NC(=O)[C@H](CCC(N)=O)NC(=O)[C@H](CC(N)=O)NC(=O)[C@@H](N)CC(N)=O)C(=O)N[C@@H](CCCCN)C(=O)N1CCC[C@H]1C(=O)N[C@@H](CCCCN)C(=O)N[C@H](C(=O)N[C@H](C(=O)N[C@@H](CCCNC(=N)N)C(=O)O)C(C)C)C(C)C` [MACV L1711-1725] the IC50 was 1.7 nM.
In the case of `CC(C)C[C@H](NC(=O)CNC(=O)[C@H](CC(C)C)NC(=O)[C@H](CO)NC(=O)[C@@H](NC(=O)[C@H](CC(C)C)NC(=O)[C@H](C)NC(=O)[C@H](CCC(N)=O)NC(=O)[C@@H](NC(=O)[C@@H](NC(=O)[C@H](CO)NC(=O)[C@@H](N)CC(N)=O)C(C)C)C(C)C)[C@@H](C)O)C(=O)N[C@@H](CC(C)C)C(=O)N[C@@H](Cc1ccc(O)cc1)C(=O)N[C@H](C(=O)O)[C@@H](C)O` [MACV NP191-205], the IC50 is reported as 0.78 nM.
Work on `CC(C)C[C@H](NC(=O)[C@H](CO)NC(=O)[C@@H]1CCCN1C(=O)[C@@H]1CCCN1C(=O)[C@H](C)NC(=O)[C@@H](NC(=O)[C@H](CCCNC(=N)N)NC(=O)[C@H](CCCNC(=N)N)NC(=O)[C@H](Cc1ccccc1)NC(=O)[C@H](CCC(=O)O)NC(=O)[C@H](C)NC(=O)[C@H](CO)NC(=O)[C@@H]1CCCN1)[C@@H](C)O)C(=O)N[C@@H](Cc1ccc(O)cc1)C(=O)NCC(=O)O` [MACV Z21-35] (H-PSAEFRRTAPPSLYG-OH) yielded an IC50 of 2 nM.
With `CC[C@H](C)[C@H](NC(=O)[C@H](CC(C)C)NC(=O)[C@H](CO)NC(=O)[C@@H](N)C(C)C)C(=O)N[C@@H](C)C(=O)N[C@@H](C)C(=O)N[C@@H](CC(C)C)C(=O)N[C@@H](CCCCN)C(=O)NCC(=O)N[C@@H](CCSC)C(=O)N[C@H](C(=O)N[C@@H](CC(N)=O)C(=O)N[C@@H](CC(C)C)C(=O)N[C@@H](Cc1c[nH]c2ccccc12)C(=O)N[C@@H](CCCCN)C(=O)O)[C@@H](C)CC` [SABV GPC26-40] (H-VSLIAALKGMINLWK-OH) the IC50 was 0.47 nM.
`CC(C)C[C@H](NC(=O)[C@H](Cc1ccccc1)NC(=O)[C@H](CC(C)C)NC(=O)[C@@H](NC(=O)[C@@H](NC(=O)[C@@H](NC(=O)[C@@H](N)Cc1ccccc1)[C@@H](C)O)[C@@H](C)O)[C@@H](C)O)C(=O)N[C@@H](Cc1c[nH]cn1)C(=O)N[C@@H](CC(C)C)C(=O)N[C@H](C(=O)NCC(=O)N[C@@H](Cc1ccccc1)C(=O)N1CCC[C@H]1C(=O)N[C@H](C(=O)N[C@@H](Cc1c[nH]cn1)C(=O)O)[C@@H](C)O)C(C)C` [SABV GPC436-450] (H-FTTTLFLHLVGFPTH-OH) showed an IC50 of 0.92 nM.
For `CC[C@H](C)[C@H](NC(=O)[C@H](Cc1c[nH]cn1)NC(=O)[C@H](CCCNC(=N)N)NC(=O)[C@H](Cc1c[nH]cn1)NC(=O)[C@@H](NC(=O)[C@@H]1CCCN1C(=O)[C@H](Cc1ccccc1)NC(=O)CNC(=O)[C@@H](NC(=O)[C@H](CC(C)C)NC(=O)[C@H](Cc1c[nH]cn1)NC(=O)[C@H](CC(C)C)NC(=O)[C@@H](N)Cc1ccccc1)C(C)C)[C@@H](C)O)C(=O)N[C@@H](CCCNC(=N)N)C(=O)NCC(=O)O` [SABV GPC441-455] (H-FLHLVGFPTHRHIRG-OH), the IC50 was 0.09 nM.
In the case of `CC[C@H](C)[C@H](NC(=O)[C@@H](N)Cc1ccccc1)C(=O)N[C@H](C(=O)N[C@@H](Cc1ccccc1)C(=O)N[C@@H](CC(C)C)C(=O)N[C@@H](CC(C)C)C(=O)N[C@@H](CC(C)C)C(=O)N[C@@H](C)C(=O)NCC(=O)N[C@@H](CCCNC(=N)N)C(=O)N[C@@H](CO)C(=O)N[C@@H](CS)C(=O)N[C@@H](CO)C(=O)N[C@@H](Cc1ccc(O)cc1)C(=O)N[C@@H](CCCCN)C(=O)O)C(C)C` [WWAV GPC46-60] (H-FIVFLLLAGRSCSYK-OH), the IC50 is reported as 1.2 nM.
For `CC[C@H](C)[C@H](NC(=O)[C@H](CC(C)C)NC(=O)[C@H](Cc1c[nH]cn1)NC(=O)[C@H](CC(=O)O)NC(=O)[C@H](CO)NC(=O)[C@H](CCC(=O)O)NC(=O)[C@H](CC(C)C)NC(=O)[C@H](CC(C)C)NC(=O)[C@H](Cc1c[nH]c2ccccc12)NC(=O)[C@H](CCC(N)=O)NC(=O)[C@H](CC(N)=O)NC(=O)[C@H](CCCNC(=N)N)NC(=O)[C@@H](N)Cc1ccccc1)C(=O)N[C@@H](CO)C(=O)N[C@@H](CCC(=O)O)C(=O)O` [WWAV GPC386-400] (H-FRNQWLLESDHLISE-OH), the IC50 was 1.6 nM.
